According to PubChem BioAssay (NCI):
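Each compound was tested at five concentrations against cells in 96-well plates for 48 hours. GI50 marks 50% less growth. TGI denotes the concentration required for complete inhibition of growth.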

Assays:
Test in all cases: DTP human tumour cell line panel, 48 h
OVCAR-3 ovarian = tested on: OVCAR-3 ovarian
CAKI-1 renal = tested on: CAKI-1 renal
HCT-15 colon = tested on: HCT-15 colon
KM12 colon = tested on: KM12 colon
SW-620 colon = tested on: SW-620 colon
SR leukemia = tested on: SR leukemia
HCC-2998 colon = tested on: HCC-2998 colon
DU-145 prostate = tested on: DU-145 prostate
HT29 colon = tested on: HT29 colon
HL-60(TB) leukemia = tested on: HL-60(TB) leukemia
CCRF-CEM leukemia = tested on: CCRF-CEM leukemia
IGROV1 ovarian = tested on: IGROV1 ovarian
SNB-19 CNS = tested on: SNB-19 CNS
NCI/ADR-RES ovarian = tested on: NCI/ADR-RES ovarian
TK-10 renal = tested on: TK-10 renal
MDA-MB-435 = tested on: MDA-MB-435
LOX IMVI melanoma = tested on: LOX IMVI melanoma
M14 melanoma = tested on: M14 melanoma
PC-3 prostate = tested on: PC-3 prostate
NCI-H522 lung = tested on: NCI-H522 lung
MDA-MB-231 breast = tested on: MDA-MB-231 breast
RXF 393 renal = tested on: RXF 393 renal
K-562 leukemia = tested on: K-562 leukemia
OVCAR-8 ovarian = tested on: OVCAR-8 ovarian
HOP-62 NSCLC = tested on: HOP-62 NSCLC
SK-MEL-2 melanoma = tested on: SK-MEL-2 melanoma
MALME-3M melanoma = tested on: MALME-3M melanoma
HCT-116 colon = tested on: HCT-116 colon
SN12C renal = tested on: SN12C renal
786-0 renal = tested on: 786-0 renal
SF-539 CNS = tested on: SF-539 CNS
UACC-257 melanoma = tested on: UACC-257 melanoma
BT-549 breast = tested on: BT-549 breast
UO-31 renal = tested on: UO-31 renal
NCI-H23 lung = tested on: NCI-H23 lung
NCI-H226 lung = tested on: NCI-H226 lung
SNB-75 CNS = tested on: SNB-75 CNS
A549 NSCLC = tested on: A549 NSCLC
SK-OV-3 ovarian = tested on: SK-OV-3 ovarian
OVCAR-5 ovarian = tested on: OVCAR-5 ovarian
SF-268 CNS = tested on: SF-268 CNS
HS 578T breast = tested on: HS 578T breast
U251 CNS = tested on: U251 CNS
COLO 205 colon = tested on: COLO 205 colon
MOLT-4 leukemia = tested on: MOLT-4 leukemia
SF-295 CNS = tested on: SF-295 CNS
A498 renal = tested on: A498 renal
MCF7 breast = tested on: MCF7 breast
ACHN renal = tested on: ACHN renal
SK-MEL-28 melanoma = tested on: SK-MEL-28 melanoma
RPMI-8226 leukemia = tested on: RPMI-8226 leukemia
OVCAR-4 ovarian = tested on: OVCAR-4 ovarian
NCI-H460 lung = tested on: NCI-H460 lung
SK-MEL-5 melanoma = tested on: SK-MEL-5 melanoma
EKVX NSCLC = tested on: EKVX NSCLC
T-47D breast = tested on: T-47D breast
UACC-62 melanoma = tested on: UACC-62 melanoma

## COC(=O)c1ccccc1CC(Cc1ccccc1)C(=O)OC (stereo not given)
OVCAR-3 ovarian
  TGI: > 100 µM
CAKI-1 renal
  TGI: > 100 µM
HCT-15 colon
  TGI: > 100 µM
KM12 colon
  TGI: > 100 µM
SW-620 colon
  TGI: > 100 µM
SR leukemia
  TGI: > 100 µM
HCC-2998 colon
  TGI: > 100 µM
DU-145 prostate
  TGI: > 100 µM
HT29 colon
  TGI: > 100 µM
HL-60(TB) leukemia
  TGI: 55.9 µM
CCRF-CEM leukemia
  TGI: > 100 µM
IGROV1 ovarian
  TGI: > 100 µM
SNB-19 CNS
  TGI: > 100 µM
NCI/ADR-RES ovarian
  TGI: > 100 µM
TK-10 renal
  TGI: > 100 µM
MDA-MB-435
  TGI: > 100 µM
LOX IMVI melanoma
  TGI: > 100 µM
M14 melanoma
  TGI: > 100 µM
PC-3 prostate
  TGI: > 100 µM
NCI-H522 lung
  TGI: > 100 µM
MDA-MB-231 breast
  TGI: > 100 µM
RXF 393 renal
  TGI: 70.9 µM
K-562 leukemia
  TGI: > 100 µM
OVCAR-8 ovarian
  TGI: > 100 µM
HOP-62 NSCLC
  TGI: > 100 µM
SK-MEL-2 melanoma
  TGI: > 100 µM
MALME-3M melanoma
  TGI: > 100 µM
HCT-116 colon
  TGI: > 100 µM
SN12C renal
  TGI: > 100 µM
786-0 renal
  TGI: > 100 µM
SF-539 CNS
  TGI: > 100 µM
UACC-257 melanoma
  TGI: > 100 µM
BT-549 breast
  TGI: > 100 µM
UO-31 renal
  TGI: > 100 µM
NCI-H23 lung
  TGI: > 100 µM
NCI-H226 lung
  TGI: > 100 µM
SNB-75 CNS
  TGI: 73.7 µM
A549 NSCLC
  TGI: > 100 µM
SK-OV-3 ovarian
  TGI: > 100 µM
OVCAR-5 ovarian
  TGI: > 100 µM
SF-268 CNS
  TGI: 61.3 µM
HS 578T breast
  TGI: > 100 µM
U251 CNS
  TGI: > 100 µM
COLO 205 colon
  TGI: > 100 µM
MOLT-4 leukemia
  TGI: 90.7 µM
SF-295 CNS
  TGI: > 100 µM
A498 renal
  TGI: > 100 µM
MCF7 breast
  TGI: > 100 µM
ACHN renal
  TGI: > 100 µM
SK-MEL-28 melanoma
  TGI: > 100 µM
RPMI-8226 leukemia
  TGI: > 100 µM
OVCAR-4 ovarian
  TGI: > 100 µM
NCI-H460 lung
  TGI: > 100 µM
SK-MEL-5 melanoma
  TGI: 54.8 µM
EKVX NSCLC
  TGI: > 100 µM

## CN1C(=O)C(c2c[nH]c3ccccc23)=C(c2c(-c3c[nH]c4ccccc34)[nH]c3ccccc23)C1=O
OVCAR-3 ovarian
  GI50: 0.92 µM
  TGI: 2.99 µM
CAKI-1 renal
  GI50: 1.48 µM
  TGI: 4.63 µM
HCT-15 colon
  GI50: 3.24 µM
  TGI: 12.3 µM
KM12 colon
  GI50: 2.13 µM
  TGI: 7.61 µM
SR leukemia
  GI50: 5.19 µM
  TGI: 9.68 µM
DU-145 prostate
  GI50: 3 µM
  TGI: 12.2 µM
HT29 colon
  GI50: 2.73 µM
  TGI: 8.36 µM
T-47D breast
  GI50: 4.72 µM
  TGI: 66.8 µM
HL-60(TB) leukemia
  GI50: 2.41 µM
  TGI: 8.21 µM
CCRF-CEM leukemia
  GI50: 3.19 µM
  TGI: 12.4 µM
IGROV1 ovarian
  GI50: 9.53 µM
  TGI: > 100 µM
SNB-19 CNS
  GI50: 3.95 µM
  TGI: 18.8 µM
NCI/ADR-RES ovarian
  GI50: 14.7 µM
  TGI: 42.8 µM
TK-10 renal
  GI50: 1.66 µM
  TGI: 4.85 µM
MDA-MB-435
  GI50: 1.71 µM
  TGI: 4.11 µM
LOX IMVI melanoma
  GI50: 4.67 µM
  TGI: 17 µM
M14 melanoma
  GI50: 1.76 µM
  TGI: 4.79 µM
PC-3 prostate
  GI50: 3.11 µM
  TGI: 17.3 µM
NCI-H522 lung
  GI50: 12.3 µM
  TGI: > 100 µM
MDA-MB-231 breast
  GI50: 4.09 µM
  TGI: 26.9 µM
RXF 393 renal
  GI50: 1.64 µM
  TGI: 6.07 µM
K-562 leukemia
  GI50: 3.07 µM
  TGI: > 100 µM
OVCAR-8 ovarian
  GI50: 3.2 µM
  TGI: 11 µM
HOP-62 NSCLC
  GI50: 2.1 µM
  TGI: 11.9 µM
UACC-62 melanoma
  GI50: 2.91 µM
  TGI: 5.54 µM
HCT-116 colon
  GI50: 3.68 µM
  TGI: 11.2 µM
SN12C renal
  GI50: 2.64 µM
786-0 renal
  GI50: 3.44 µM
  TGI: 14.1 µM
SF-539 CNS
  GI50: 1.81 µM
  TGI: 3.67 µM
UACC-257 melanoma
  GI50: 3.59 µM
  TGI: 13.2 µM
UO-31 renal
  GI50: 15.2 µM
  TGI: > 100 µM
NCI-H23 lung
  GI50: 1.7 µM
  TGI: 4.72 µM
SNB-75 CNS
  GI50: 1.74 µM
  TGI: 18 µM
A549 NSCLC
  GI50: 3.83 µM
  TGI: 13.9 µM
SK-OV-3 ovarian
  GI50: 3.14 µM
  TGI: 13 µM
OVCAR-5 ovarian
  GI50: 2.85 µM
  TGI: 11.3 µM
SF-268 CNS
  GI50: 4.07 µM
  TGI: 19.5 µM
HS 578T breast
  GI50: 3 µM
  TGI: 13.6 µM
U251 CNS
  GI50: 3 µM
  TGI: 9.61 µM
COLO 205 colon
  GI50: 2.8 µM
  TGI: 7.89 µM
SF-295 CNS
  GI50: 1.93 µM
  TGI: 4.27 µM
A498 renal
  GI50: 1.89 µM
  TGI: 8.12 µM
MCF7 breast
  GI50: 2.27 µM
  TGI: 6.26 µM
ACHN renal
  GI50: 3.4 µM
  TGI: 13.9 µM
SK-MEL-28 melanoma
  GI50: 10.4 µM
  TGI: 31.4 µM
RPMI-8226 leukemia
  GI50: 3.54 µM
  TGI: 17.5 µM
OVCAR-4 ovarian
  GI50: 15.5 µM
  TGI: > 100 µM
NCI-H460 lung
  GI50: 3.31 µM
  TGI: 15.8 µM
